# Laboratory results published in US9328324B2, “System, method and devices for tissue-based diagnosis” (The Regents of the University of California, priority 2009, dated 2016).
# Experiment: Preservation of bioactivity of solubilized tissue constituents under ultrasonic energy exposure
# Conditions: 1% w/v in LPM
row,preservation of bioactivity of solubilized proteins and nucleic acids,SMILES
1,complete preservation,"CCCCCCCCCC[N+](C)(C)CCCS(=O)(=O)[O-] [DPS, 3-(decyldimethylammonio) propane sulfonate]"
2,complete preservation,"CCCCCCCCCCCC(=O)N(C)CC(=O)O [NLS, N-lauroyl sarcosine]"
3,complete preservation,"CCCCCCCCCCCCOCCOCCOCCOCCO [Brij 30, polyethylene glycol dodecyl ether]"
